Laboratory results as given in patent publication US20060025478A1, “Medicine for prevention or treatment of diabetes” (priority 2004, published 2006).

Tested on: C57BL/KsJ db/db mice
Assay: Hypoglycemic effect of single or combined administration in db/db mice (plasma glucose concentration)
Assay type: in vivo, mouse
Settings: for Decreasing effect for the plasma glucose concentration (in words) / Relative index (mean plasma glucose of group / mean of control group) / Decreasing rate (of plasma glucose concentration vs control group): 14th day; for Decreasing effect for the plasma glucose concentration (in words): compared with db/+m normal mouse (187±16); for Relative index (mean plasma glucose of group / mean of control group) / Decreasing rate (of plasma glucose concentration vs control group) / Plasma glucose concentration: oral once a day for 14 days; for Decreasing rate (of plasma glucose concentration vs control group): (control mean − group mean)/control mean ×100; for Plasma glucose concentration: plasma 2 hours after administration on the 14th day, mean±standard deviation for 6 mice, control group 499 ± 81
Protocol: As test animals, C57BL/KsJ db/db mice were used, which were created in Jackson Laboratory (USA) and known as an obesity, hyperlipemia, hyperinsulinemia, and insulin-resistant model (Journal of Clinical Investigation, 85, pp 962-967, 1990). Blood was collected from the orbital venous plexus of each 7-week-old db/db mouse using a heparin-treated capillary tube, and centrifugation was performed to collect plasma. Thereafter, the plasma glucose concentration (Glucose CII-Test Wako (Wako Pure Chemical Industries, Ltd.)), the insulin concentration (Lebis Insulin Kit: for mouse-T (SHIBAYAGI)), and the triglyceride concentration (Triglyceride E-Test Wako (Wako Pure Chemical Industries, Ltd.)) were measured for classification. The classification was performed so that distribution of each measurement item is uniform for each group by block allocation based on many variables in which the plasma glucose concentration is most emphasized using the measured values of the plasma glucose concentration, the body weight, the insulin concentration, and the triglyceride concentration. […] Two hours after the administration of the medicines on the 14th day from the beginning day of the administration, blood was collected from the orbital venous plexus, and the plasma thereof was collected to measure the plasma glucose concentration. […] Each plasma glucose concentration is expressed as mean±standard deviation for 6 mice of each group. Each decreasing rate is calculated from ((mean of plasma glucose concentration of control group)−(mean of plasma glucose concentration of each group))/(mean of plasma glucose concentration of control group)×100, while each relative index is calculated from (mean of plasma glucose concentration of each group)/(mean of plasma glucose concentration of control group)

Compound	Decreasing effect for the plasma glucose concentration (in words)	Relative index (mean plasma glucose of group / mean of control group)	Decreasing rate (of plasma glucose concentration vs control group) [%]	Plasma glucose concentration [mg/dL]
CCc1ccc(CCOc2ccc(CC3SC(=O)NC3=O)cc2)nc1.Cl (centres unmarked) [Pioglitazone hydrochloride, 5-[4-[2-(5-Ethyl-2-pyridyl)ethoxy]benzyl]thiazolidine-2,4-dione hydrochloride]	insufficient	0.80	20	401 ± 173
O=C([O-])C(Cl)(Cl)CCCCCCCCCCc1ccc(Cl)cc1.[Na+] [sodium 2,2-dichloro-12-(4-chlorophenyl)-dodecanoate]	insufficient	0.92	8	459 ± 77
